Test results: patent US10626112B2, “Heterocyclic sulfonamide derivative and medicine comprising same” (EA PHARMA CO., LTD., priority 2014, dated 2020)

Target: human TRPA1 (Homo sapiens (Human), UniProt O75762)
Assay: Measurement of TRPA1 antagonist activity (1): intracellular calcium increase
Assay type: cell-based
Details: 293T cells transfected with human TRPA1 expression plasmid; allylisothiocyanate 20 μM stimulation; intracellular calcium fluorescence; read-out: hTRPA1 IC50
In short: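 Calcium-flux readout of TRPA1 block: compound given 10 min before 20 μM (final) allylisothiocyanate, fluorescence tracked 5 min. Cells were 293T transiently expressing human TRPA1, dye-loaded 1 hr in HBSS, 20 mM HEPES, pH 7.2. Inhibition scaled between agonist-only and buffer-only responses; IC50 by sigmoid fitting.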

human TRPA1, sequence (O75762 whole entry): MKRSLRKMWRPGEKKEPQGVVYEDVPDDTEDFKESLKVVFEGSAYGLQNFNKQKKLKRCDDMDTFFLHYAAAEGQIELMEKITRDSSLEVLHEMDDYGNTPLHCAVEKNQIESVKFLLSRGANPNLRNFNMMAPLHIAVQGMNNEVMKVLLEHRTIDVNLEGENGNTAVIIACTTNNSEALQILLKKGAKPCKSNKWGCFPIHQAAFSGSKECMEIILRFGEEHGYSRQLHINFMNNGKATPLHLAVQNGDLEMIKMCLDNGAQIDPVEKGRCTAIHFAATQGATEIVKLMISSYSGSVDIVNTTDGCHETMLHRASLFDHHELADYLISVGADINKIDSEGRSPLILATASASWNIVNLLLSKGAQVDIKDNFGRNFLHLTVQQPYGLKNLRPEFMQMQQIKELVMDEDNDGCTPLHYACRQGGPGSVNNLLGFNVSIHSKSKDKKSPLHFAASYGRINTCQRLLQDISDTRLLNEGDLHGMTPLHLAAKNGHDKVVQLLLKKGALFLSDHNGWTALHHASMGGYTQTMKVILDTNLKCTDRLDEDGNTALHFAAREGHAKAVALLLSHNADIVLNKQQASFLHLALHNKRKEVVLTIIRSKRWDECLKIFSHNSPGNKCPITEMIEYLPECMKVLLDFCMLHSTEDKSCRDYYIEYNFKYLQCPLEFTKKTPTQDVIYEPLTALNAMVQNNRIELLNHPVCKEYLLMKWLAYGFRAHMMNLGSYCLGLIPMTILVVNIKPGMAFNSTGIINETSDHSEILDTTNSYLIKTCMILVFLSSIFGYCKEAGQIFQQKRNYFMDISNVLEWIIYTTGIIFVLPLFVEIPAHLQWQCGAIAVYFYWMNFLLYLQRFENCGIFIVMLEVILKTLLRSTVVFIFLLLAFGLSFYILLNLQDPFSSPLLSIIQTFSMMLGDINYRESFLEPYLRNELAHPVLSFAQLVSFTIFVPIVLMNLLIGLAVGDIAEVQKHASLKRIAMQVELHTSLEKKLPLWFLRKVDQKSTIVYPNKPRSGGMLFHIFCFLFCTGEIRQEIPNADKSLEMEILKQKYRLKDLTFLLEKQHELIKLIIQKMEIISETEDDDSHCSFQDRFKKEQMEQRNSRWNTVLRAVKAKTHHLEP

## O=C(NCc1cccc(-c2ccc(C(F)(F)F)cc2O)n1)[C@@H]1CCCN1S(=O)(=O)c1cc2cc(F)ccc2o1 [Example 147, (2S)-1-(5-fluorobenzofuran-2-yl)sulfonyl-N-[[6-[2-hydroxy-4-(trifluoromethyl)phenyl]-2-pyridyl]methyl]pyrrolidine-2-carboxamide]
  IC50: 180 nM

## O=C(NCc1cc(-c2ccc(C(F)(F)F)cc2)ccn1)[C@@H]1CCCN1S(=O)(=O)c1cc2cc(F)ccc2o1 [Example 148, (2S)-1-(5-fluorobenzofuran-2-yl)sulfonyl-N-[[4-[4-(trifluoromethyl)phenyl]-2-pyridyl]methyl]pyrrolidine-2-carboxamide]
  IC50: 2.2 nM

## O=C(NCc1cc(-c2ccc(C(F)(F)F)nc2)ccn1)[C@@H]1CCCN1S(=O)(=O)c1cc2cc(F)ccc2o1 [Example 149, (2S)-1-(5-fluorobenzofuran-2-yl)sulfonyl-N-[[4-[6-(trifluoromethyl)-3-pyridyl]-2-pyridyl]methyl]pyrrolidine-2-carboxamide]
  IC50: 1.5 nM

## N#Cc1ccc(-c2ccnc(CNC(=O)[C@@H]3CCCN3S(=O)(=O)c3cc4cc(F)ccc4o3)c2)cc1 [Example 150, (2S)-N-[[4-(4-cyanophenyl)-2-pyridyl]methyl]-1-(5-fluorobenzofuran-2-yl)sulfonyl-pyrrolidine-2-carboxamide]
  IC50: 13 nM

## O=C(NCc1cc(-c2ccc(C(F)(F)F)nc2)ccn1)[C@@H]1CCCN1S(=O)(=O)c1cc2ccccc2o1 [Example 151, (2S)-1-(benzofuran-2-ylsulfonyl)-N-[[4-[6-(trifluoromethyl)-3-pyridyl]-2-pyridyl]methyl]pyrrolidine-2-carboxamide]
  IC50: 1.9 nM

## N#Cc1ccc(-c2ccnc(CNC(=O)[C@@H]3CCCN3S(=O)(=O)c3cc4ccccc4o3)c2)nc1 [Example 152, (2S)-1-(benzofuran-2-ylsulfonyl)-N-[[4-(5-cyano-2-pyridyl)-2-pyridyl]methyl]pyrrolidine-2-carboxamide]
  IC50: 160 nM

## O=C(NCc1cc(-c2ccc(OC(F)(F)F)cc2)ccn1)[C@@H]1CCCN1S(=O)(=O)c1cc2ccccc2o1 [Example 153, (2S)-1-(benzofuran-2-ylsulfonyl)-N-[[4-[4-(trifluoromethoxy)phenyl]-2-pyridyl]methyl]pyrrolidine-2-carboxamide]
  IC50: 5.6 nM

## Cn1nc(C(F)(F)F)cc1-c1ccnc(CNC(=O)[C@@H]2CCCN2S(=O)(=O)c2cc3ccccc3o2)c1 [Example 154, (2S)-1-(benzofuran-2-ylsulfonyl)-N-[[4-[2-methyl-5-(trifluoromethyl)pyrazol-3-yl]-2-pyridyl]methyl]pyrrolidine-2-carboxamide]
  IC50: 42 nM

## O=C(NCc1cccc(-c2ccc(F)cc2)c1)[C@@H]1CCCN1S(=O)(=O)c1cc2cc(F)ccc2o1 [Example 155, (2S)-1-(5-fluorobenzofuran-2-yl)sulfonyl-N-[[3-(4-fluorophenyl)phenyl]methyl]-pyrrolidine-2-carboxamide]
  IC50: 4 nM

## O=C(NCc1cccc(-c2ccc(Cl)cc2)c1)[C@@H]1CCCN1S(=O)(=O)c1cc2cc(F)ccc2o1 [Example 156, (2S)-N-[[3-(4-chlorophenyl)phenyl]methyl]-1-(5-fluorobenzofuran-2-yl)sulfonyl-pyrrolidine-2-carboxamide]
  IC50: 2.1 nM

## O=C(NCc1cccc(-c2ccc(C(F)(F)F)cc2)c1)[C@@H]1CCCN1S(=O)(=O)c1cc2cc(F)ccc2o1 [Example 157, (2S)-1-(5-fluorobenzofuran-2-yl)sulfonyl-N-[[3-[4-(trifluoromethyl)phenyl]-phenyl]methyl]pyrrolidine-2-carboxamide]
  IC50: 0.48 nM

## O=C(NCc1cccc(-c2ccc(OC(F)(F)F)cc2)c1)[C@@H]1CCCN1S(=O)(=O)c1cc2cc(F)ccc2o1 [Example 158, (2S)-1-(5-fluorobenzofuran-2-yl)sulfonyl-N-[[3-[4-(trifluoromethoxy)phenyl]-phenyl]methyl]pyrrolidine-2-carboxamide]
  IC50: 0.83 nM

## CN(C)c1ccc(-c2cccc(CNC(=O)[C@@H]3CCCN3S(=O)(=O)c3cc4cc(F)ccc4o3)c2)cn1 [Example 159, (2S)-N-[[3-[6-(dimethylamino)-3-pyridyl]phenyl]methyl]-1-(5-fluorobenzofuran-2-yl)sulfonyl-pyrrolidine-2-carboxamide]
  IC50: 6.2 nM

## O=C(NCc1cccc(-c2ccc(N3CCCC3)nc2)c1)[C@@H]1CCCN1S(=O)(=O)c1cc2cc(F)ccc2o1 [Example 160, (2S)-1-(5-fluorobenzofuran-2-yl)sulfonyl-N-[[3-(6-pyrrolidin-1-yl-3-pyridyl)phenyl]methyl]-pyrrolidine-2-carboxamide]
  IC50: 19 nM

## O=C(NCc1cccc(-c2ccc(N3CCOCC3)nc2)c1)[C@@H]1CCCN1S(=O)(=O)c1cc2cc(F)ccc2o1 [Example 161, (2S)-1-(5-fluorobenzofuran-2-yl)sulfonyl-N-[[3-(6-morpholino-3-pyridyl)phenyl]methyl]-pyrrolidine-2-carboxamide]
  IC50: 27 nM

## CNC(=O)c1ccc(-c2cccc(CNC(=O)[C@@H]3CCCN3S(=O)(=O)c3cc4cc(F)ccc4o3)c2)cn1 [Example 162, 5-[3-[[[(2S)-1-(5-fluorobenzofuran-2-yl)sulfonylpyrrolidine-2-carbonyl]amino]methyl]phenyl]-N-methyl-pyridine-2-carboxamide]
  IC50: 51 nM

## N#Cc1cncc(-c2cccc(CNC(=O)[C@@H]3CCCN3S(=O)(=O)c3cc4cc(F)ccc4o3)c2)c1 [Example 163, (2S)-N-[[3-(5-cyano-3-pyridyl)phenyl]methyl]-1-(5-fluorobenzofuran-2-yl)sulfonyl-pyrrolidine-2-carboxamide]
  IC50: 31 nM

## O=C(NCc1ccc(-c2ccc(C(F)(F)F)cc2)cc1)[C@@H]1CCCN1S(=O)(=O)c1cc2ccccc2o1 [Example 165, (2S)-1-(benzofuran-2-ylsulfonyl)-N-[[4-[4-(trifluoromethyl)phenyl]-phenyl]methyl]pyrrolidine-2-carboxamide]
  IC50: 190 nM

## O=C(NCc1ccc(-c2cccc(C(F)(F)F)c2)cc1)[C@@H]1CCCN1S(=O)(=O)c1cc2ccccc2o1 [Example 166, (2S)-1-(benzofuran-2-ylsulfonyl)-N-[[4-[3-(trifluoromethyl)phenyl]-phenyl]methyl]pyrrolidine-2-carboxamide]
  IC50: 260 nM

## O=C(NCc1ccc(-c2ccccc2C(F)(F)F)cc1)[C@@H]1CCCN1S(=O)(=O)c1cc2ccccc2o1 [Example 167, (2S)-1-(benzofuran-2-ylsulfonyl)-N-[[4-[2-(trifluoromethyl)phenyl]-phenyl]methyl]pyrrolidine-2-carboxamide]
  IC50: 140 nM

## O=C(NCc1ccc(-c2ccc(F)cc2)cc1)[C@@H]1CCCN1S(=O)(=O)c1cc2ccccc2o1 [Example 168, (2S)-1-(benzofuran-2-ylsulfonyl)-N-[[4-(4-fluorophenyl)phenyl]methyl]-pyrrolidine-2-carboxamide]
  IC50: 180 nM

## O=C(NCc1ccc(-c2cccc(F)c2)cc1)[C@@H]1CCCN1S(=O)(=O)c1cc2ccccc2o1 [Example 169, (2S)-1-(benzofuran-2-ylsulfonyl)-N-[[4-(3-fluorophenyl)phenyl]methyl]-pyrrolidine-2-carboxamide]
  IC50: 150 nM

## N#Cc1ccc(-c2ccc(CNC(=O)[C@@H]3CCCN3S(=O)(=O)c3cc4ccccc4o3)cc2)cc1 [Example 170, (2S)-1-(benzofuran-2-ylsulfonyl)-N-[[4-(4-cyanophenyl)phenyl]methyl]-pyrrolidine-2-carboxamide]
  IC50: 230 nM

## N#Cc1cccc(-c2ccc(CNC(=O)[C@@H]3CCCN3S(=O)(=O)c3cc4ccccc4o3)cc2)c1 [Example 171, (2S)-1-(benzofuran-2-ylsulfonyl)-N-[[4-(3-cyanophenyl)phenyl]methyl]-pyrrolidine-2-carboxamide]
  IC50: 510 nM

## CN(C)c1ccc(-c2ccc(F)c(CNC(=O)[C@@H]3CCCN3S(=O)(=O)c3cc4ccccc4o3)c2)cn1 [Example 172, (2S)-1-(benzofuran-2-ylsulfonyl)-N-[[5-[6-(dimethylamino)-3-pyridyl]-2-fluoro-phenyl]methyl]pyrrolidine-2-carboxamide]
  IC50: 11 nM

## O=C(NCc1cc(-c2cnc(C3CC3)nc2)ccc1F)[C@@H]1CCCN1S(=O)(=O)c1cc2ccccc2o1 [Example 173, (2S)-1-(benzofuran-2-ylsulfonyl)-N-[[5-(2-cyclopropylpyrimidin-5-yl)-2-fluoro-phenyl]methyl]pyrrolidine-2-carboxamide]
  IC50: 17 nM

## CN(C)c1ncc(-c2ccc(F)c(CNC(=O)[C@@H]3CCCN3S(=O)(=O)c3cc4ccccc4o3)c2)cn1 [Example 174, (2S)-1-(benzofuran-2-ylsulfonyl)-N-[[5-[2-(dimethylamino)pyrimidin-5-yl]-2-fluoro-phenyl]methyl]pyrrolidine-2-carboxamide]
  IC50: 29 nM

## CN(C(=O)OC(C)(C)C)c1ccc(-c2ccc(F)c(CNC(=O)C3CCCN3S(=O)(=O)c3cc4ccccc4o3)c2)cn1 [Example 175, tert-butyl N-[5-[3-[[[(2S)-1-benzofuran-2-ylsulfonyl)pyrrolidine-2-carbonyl]amino]methyl]-4-fluoro-phenyl]-2-pyridyl]-N-methylcarbamate]
  IC50: 13 nM

## O=C(NCc1ccnc(-c2cc3ccccc3[nH]2)c1)[C@@H]1CCCN1S(=O)(=O)c1cc2ccccc2o1 [Example 176, (2S)-1-(benzofuran-2-ylsulfonyl)-N-[[2-(1H-indol-2-yl)-4-pyridyl]methyl]pyrrolidine-2-carboxamide]
  IC50: 320 nM

## CNc1ccc(-c2ccc(F)c(CNC(=O)[C@@H]3CCCN3S(=O)(=O)c3cc4ccccc4o3)c2)cn1 [Example 177, (2S)-1-(benzofuran-2-ylsulfonyl)-N-[[2-fluoro-5-[6-(methylamino)-3-pyridyl]phenyl]methyl]pyrrolidine-2-carboxamide]
  IC50: 300 nM

## O=C(NCc1ccnc(-c2ccc(C(F)(F)F)cn2)c1)[C@@H]1CCCN1S(=O)(=O)c1cc2ccccc2o1 [Example 178, (2S)-1-(benzofuran-2-ylsulfonyl)-N-[[2-[5-(trifluoromethyl)-2-pyridyl]-4-pyridyl]methyl]pyrrolidine-2-carboxamide]
  IC50: 46 nM
